Measured values reported in patent publication US20210251228A1, “METHODS FOR REPELLING DROSOPHILA SPECIES USING 2-PENTYLFURAN” (The United States of America, as represented by the …, priority 2020, published 2021).

Assays:
Assay type in all cases: in vivo
[1] = system: Drosophila suzukii; test: Multiple-choice bioassay: EAD-active compound added to 4-component SWD lure in gated cup traps
Experimental: Multiple-Choice Bioassay: The multiple choice assay (N=8) was conducted with an arena design using a dome cage (60 cm W×60 cm L×60 cm H; BugDorm-2120 Insect tent; shop.bugdorm.com) as described in Cha et al. 2018b (Cha, D. H., et al., Environ. Entomol., 47: 946-950 (2018b)) to evaluate the effect of the individual EAD-active compounds (FIG. 1) on SWD attraction to previously identified 4-component SWD lure (Cha et al. 2012; Cha, D. H., et al., Pest Manag. Sci., 70: 324-331 (2014); Cha, D. H., et al., Environ. Entomol., 46: 907-915 (2017)). Among 18 EAD-active compounds in FIG. 1, acetoin, 1-hexanol, isoamyl acetate, 2-methylbutyl acetate, and 2-phenylethanol were previously tested for their behavioral effects (Cha et al. 2012, 2014) and not considered in this study. Therefore, we compared 13 EAD-active compounds in this study. Within each arena, 14 traps were positioned in a circle (40 cm diameter) at equal distance with each trap 9 cm apart along the circumference. We used an aluminum foil-covered 100-ml glass beaker with a cut centrifuge vial (0.7 cm diameter) inserted in the foil for SWD entry, as a trap (Cha et al. 2012). All 14 traps had the SWD lure comprised of acetic acid, ethanol, acetoin, and methionol. Acetic acid and ethanol were released from a 20 ml solution of 4% acetic acid+8% ethanol with soap, presented as a drowning solution in each trap. Acetoin (1 ml of 50% acetoin in water) and methionol (0.5 ml neat methionol) were individually released from two 1.5-ml vials with 3-mm hole on the lid with a piece of cotton as described in Cha et al. 2014. One of these 14 traps served as a control (with the 4-component SWD lure only) and the remaining 13 traps had one of the 13 EAD-active compounds added to the SWD-lure, loaded as described in Cha et al. 2012 and released from a 1.5-ml vial with 3-mm hole with a piece of cotton. […] The number of flies inside treatment and control traps was counted after 20 h.
(§1) Statistical Analyses: Trap catch data from multiple-choice assay and two-choice assay were analyzed in a randomized block design with block as a random factor and different EAD-active compounds as a fixed factor using Poisson distribution with log link function and maximum likelihood estimation (Proc Glimmix, SAS Institute, SAS/STAT 9.2 User's Guide, Second Edition, 2009, SAS Institute Inc., Cary, N.C.). Oviposition data from (1) laboratory dose-response test, (2) semi-field cage choice test, and (3) first and second field experiments were also analyzed in a randomized block design with block as a random factor and different 2-pentylfuran treatments as a fixed factor using Poisson distribution with log link function and maximum likelihood estimation. […]

[2] = system: Drosophila suzukii; test: Field cage choice test: SWD oviposition on raspberries in deli cups; details: two-choice field cage, 10 mg/h sachet, 24 h, N=4
Experimental: Field cage choice test: We evaluated the effect of 2-pentylfuran released at 10 mg/h on SWD oviposition in choice oviposition experiment under semi-field condition using flies from SWD lab colony in Hawaii. For this experiment, we used a different, more user-friendly dispenser (polyethylene sachet: see Cha et al. 2017). The 10 mg/h release rate of 2-pentylfuran, inferred from calculating weight loss of loaded dispensers over time as described by Cha et al. 2017 (linear regression between weight of sachet containing 2-pentylfuran (mg) and time (h) during 30 h period: sachet weight=669.1[…]*time, R2=0.99, P<0.0001) was achieved using equilateral triangle shaped sachets made with two layers of polyethylene film (0.0508 mm thickness, Thermwell Products Co., Inc, Mahwah, N.J.) with 5 cm on each side. One 2 cm by 1 cm diameter piece of cotton dental wick was placed into the sachet and 1 ml of neat 2-pentylfuran was loaded onto the dental wick with a syringe. Loaded sachets were sealed using an Impulse heat-sealer (Model MP-12C, Midwest Pacific Inc., St. Louis). […]
as §1

[3] = system: Drosophila melanogaster; test: Two-choice bioassay: attraction to apple cider vinegar traps; details: 20 h
Experimental: Two-Choice Bioassay with Drosophila melanogaster: The two-choice assay (N=5) was conducted with an arena design using a dome cage (30 cm W×30 cm L×30 cm H; shop.bugdorm.com) as described in Cha et al. (2012) to evaluate the effect of 2-pentylfuran on D. melanogaster, vinegar fly, attraction to apple cider vinegar, a known attractant. The same gate cup trap design was used as described above in Multiple-Choice Bioassay section. Both traps had 20 ml of apple cider vinegar with soap. […] A cotton ball (3 cm diameter) soaked with distilled water was placed in the center of the arena to provide water to D. melanogaster. . Adult flies (˜50, roughly 1:1 male: female ratio, 7-10 days old) were released in each arena. The number of flies inside treatment and control traps was counted after 20 h.
Statistical Analyses: Trap catch data from multiple-choice assay and two-choice assay were analyzed in a randomized block design with block as a random factor and different EAD-active compounds as a fixed factor using Poisson distribution with log link function and maximum likelihood estimation (Proc Glimmix, SAS Institute, SAS/STAT 9.2 User's Guide, Second Edition, 2009, SAS Institute Inc., Cary, N.C.). […]

CCCCCc1ccco1 [2-pentylfuran]
reduction of trap catches of SWD ([1]; SWD lure + 2-pentylfuran vs SWD lure only (62 SWD/trap)): 98% | negative effect on SWD attraction to the SWD lure compared with 1-octen-3-ol ([1]; multiple-choice, 20 h, N=8): significantly stronger than 1-octen-3-ol | effect on SWD attraction to (catch in traps baited with) the 4-component SWD lure ([1]; one compound added to SWD lure, 14 traps per arena, flies counted after 20 h, N=8): greatest reduction | trap catch of SWD ([1]; trap with SWD lure + 2-pentylfuran, 20 h): 1 SWD/trap | reduction of SWD oviposition on raspberries ([2]; deli cups with 25% opening): 85% | reduction of SWD oviposition on raspberries ([2]; deli cups with 50% opening): 62% | reduction of SWD oviposition on raspberries ([2]; deli cups with 75% opening): 75% | effect on D. melanogaster attraction to apple cider vinegar ([3]; 2-pentylfuran 10 mg/h sachet in gated trap, N=5): significantly reduced | number of D. melanogaster captured in traps baited with apple cider vinegar and 2-pentylfuran ([3]; among five replications, 10 mg/h, 50~67 in ACV-only traps): one
